Earlier results on 71 compounds are cited in paper PMC4460250, “Systems Pharmacology Dissecting Holistic Medicine for Treatment of Complex Diseases: An Example Using Cardiocerebrovascular Diseases Treated by TCM” (Evidence-based Complementary and Alternative Medicine : eCAM, 2015).

The conditions of one data set: human; PreHIA data set, value given as fraction; cited from earlier work.
As for `N[C@@H](Cc1ccc(O)c(O)c1)C(=O)O` [Levodopa], the “HIA(Human Intestinal Absorption)” value was 0.86.
Turning to `CC#C[C@]1(O)CC[C@H]2[C@@H]3CCC4=CC(=O)CCC4=C3[C@@H](c3ccc(N(C)C)cc3)C[C@@]21C` [Mifepristone], the “HIA(Human Intestinal Absorption)” value is 0.9.

Staying with this data set, now noted: in vivo; cited from earlier work.
Consider `COc1cccc2c1C(=O)c1c(O)c3c(c(O)c1C2=O)C[C@@](O)(C(=O)CO)C[C@@H]3O[C@H]1C[C@H](N)[C@H](O)[C@H](C)O1` [Doxorubicin], for which the “HIA(Human Intestinal Absorption)” value was 0.12.
For the compound `CCOC(=O)[C@H](CCc1ccccc1)N[C@@H](C)C(=O)N1CCC[C@H]1C(=O)O` [Enalapril], the “HIA(Human Intestinal Absorption)” value is listed as 0.66.
Turning to `CSc1ccc(C(=O)c2[nH]c(=O)[nH]c2C)cc1` [Enoximone], the “HIA(Human Intestinal Absorption)” value is reported as 0.8.
For `CC[C@H]1OC(=O)[C@H](C)[C@@H](O[C@H]2C[C@@](C)(OC)[C@@H](O)[C@H](C)O2)[C@H](C)[C@@H](O[C@@H]2O[C@H](C)C[C@H](N(C)C)[C@H]2O)[C@](C)(O)C[C@@H](C)C(=O)[C@H](C)[C@@H](O)[C@]1(C)O` [Erythromycin], the “HIA(Human Intestinal Absorption)” value was 0.35.
Regarding `CCc1cc(C(N)=S)ccn1` [Ethionamide], the “HIA(Human Intestinal Absorption)” value is listed as 0.9.
For `C#C[C@]1(O)CC[C@H]2[C@@H]3CCc4cc(O)ccc4[C@H]3CC[C@@]21C` [Ethynylestradiol], the “HIA(Human Intestinal Absorption)” value is 1.
On to `CC(O)(P(=O)(O)O)P(=O)(O)O` [Etidronate], for which the “HIA(Human Intestinal Absorption)” value was 0.05.
Regarding `COc1cc([C@@H]2c3cc4c(cc3[C@@H](O[C@@H]3O[C@@H]5CO[C@@H](C)O[C@H]5[C@H](O)[C@H]3O)[C@H]3COC(=O)[C@H]23)OCO4)cc(OC)c1O` [Etoposide], the “HIA(Human Intestinal Absorption)” value is 0.5.
For `Cc1ccc(-c2ncc(Cl)cc2-c2ccc(S(C)(=O)=O)cc2)cn1` [Etoricoxib], the “HIA(Human Intestinal Absorption)” value is on record as 1.
As for `CC(=O)OCC(CCn1cnc2cnc(N)nc21)COC(C)=O` [Famciclovir], the “HIA(Human Intestinal Absorption)” value is 0.77.
For `NC(N)=Nc1nc(CSCCC(N)=NS(N)(=O)=O)cs1` [Famotidine], the “HIA(Human Intestinal Absorption)” value is listed as 0.28.
`O=C(O)Cc1ccccc1Oc1ccc(Cl)cc1Cl` [Fenclofenac]: the “HIA(Human Intestinal Absorption)” value was 1.
As to `CC(C)(C)NC(=O)[C@H]1CC[C@H]2[C@@H]3CC[C@H]4NC(=O)C=C[C@]4(C)[C@H]3CC[C@]12C` [Finasteride], the “HIA(Human Intestinal Absorption)” value is recorded as 1.
With `Cc1onc(-c2c(F)cccc2Cl)c1C(=O)N[C@@H]1C(=O)N2[C@@H]1SC(C)(C)[C@@H]2C(=O)O` [Floxacillin], the “HIA(Human Intestinal Absorption)” value is given as 0.8.
Consider `Nc1nc(=O)[nH]cc1F` [Flucytosine], for which the “HIA(Human Intestinal Absorption)” value is 1.
With `CC(=O)OCC(=O)[C@@]1(O)CC[C@H]2[C@@H]3CCC4=CC(=O)CC[C@]4(C)[C@@]3(F)[C@@H](O)C[C@@]21C` [Fludrocortisone_acetate], the “HIA(Human Intestinal Absorption)” value is 0.95.
Take `CCOC(=O)c1ncn2c1CN(C)C(=O)c1cc(F)ccc1-2` [Flumazenil]: the “HIA(Human Intestinal Absorption)” value is 0.95.
`CC1(C)O[C@@H]2C[C@H]3[C@@H]4C[C@H](F)C5=CC(=O)C=C[C@]5(C)[C@H]4[C@@H](O)C[C@]3(C)[C@]2(C(=O)CO)O1` [Flunisolide]: the “HIA(Human Intestinal Absorption)” value is given as 0.8.
Take `O=C1OC2(c3ccc(O)cc3Oc3cc(O)ccc32)c2ccccc21` [Fluorescein]: the “HIA(Human Intestinal Absorption)” value was 0.99.
Regarding `CNCCC(Oc1ccc(C(F)(F)F)cc1)c1ccccc1` (centres unmarked) [Fluoxetine], the “HIA(Human Intestinal Absorption)” value is recorded as 0.8.
With `CC(C)C(=O)Nc1ccc([N+](=O)[O-])c(C(F)(F)F)c1` [Flutamide], the “HIA(Human Intestinal Absorption)” value is on record as 0.9.
Regarding `O=C(O)P(=O)(O)O` [Foscarnet], the “HIA(Human Intestinal Absorption)” value is reported as 0.17.
For `C[C@@H]1O[C@@H]1P(=O)(O)O` [Fosfomycin], the “HIA(Human Intestinal Absorption)” value is 0.31.
In the case of `Nc1nc(O)c2ncn(COC(CO)CO)c2n1` [Ganciclovir], the “HIA(Human Intestinal Absorption)” value is recorded as 0.038.
Turning to `Cc1ccc(C)c(OCCCC(C)(C)C(=O)O)c1` [Gemfibrozil], the “HIA(Human Intestinal Absorption)” value was 1.
Consider `C#C[C@]1(O)C=C[C@H]2[C@@H]3CCC4=CC(=O)CC[C@@H]4[C@H]3CC[C@@]21CC` [Gestodene], for which the “HIA(Human Intestinal Absorption)” value is 1.
For the compound `Cc1ccc(S(=O)(=O)NC(=O)N[C@H]2[C@H]3CC[C@@](C)([C@H]2O)C3(C)C)cc1` [Glibornuride], the “HIA(Human Intestinal Absorption)” value is on record as 0.98.
Take `Cc1ccc(S(=O)(=O)NC(=O)NN2CC3CCCC3C2)cc1` (centres unmarked) [Gliclazide]: the “HIA(Human Intestinal Absorption)” value is reported as 0.65.
For the compound `CCC1=C(C)CN(C(=O)NCCc2ccc(S(=O)(=O)NC(=O)N[C@H]3CC[C@H](C)CC3)cc2)C1=O` [Glimepiride], the “HIA(Human Intestinal Absorption)” value is recorded as 1.
Take `COc1ccc2c(c1)C(=O)N(CCc1ccc(S(=O)(=O)NC(=O)NC3CCCCC3)cc1)C(=O)C2(C)C` [Gliquidone]: the “HIA(Human Intestinal Absorption)” value is 0.95.
In the case of `COc1ccc(Cl)cc1C(=O)NCCc1ccc(S(=O)(=O)NC(=O)NC2CCCCC2)cc1` [Glyburide], the “HIA(Human Intestinal Absorption)” value is 1.
For the compound `CN1C2CCCC1CC(NC(=O)c1nn(C)c3ccccc13)C2` (centres unmarked) [Granisetron], the “HIA(Human Intestinal Absorption)” value is given as 1.
As for `N=C(N)N/N=C/c1c(Cl)cccc1Cl` [Guanabenz], the “HIA(Human Intestinal Absorption)” value is given as 0.8.
Take `NNc1nncc2ccccc12` [Hydralazine]: the “HIA(Human Intestinal Absorption)” value is given as 1.
Consider `CCCCCC(=O)O[C@]1(C(C)=O)CC[C@H]2[C@@H]3CCC4=CC(=O)CC[C@]4(C)[C@H]3CC[C@@]21C` [Hydroxyprogesterone_caproate], for which the “HIA(Human Intestinal Absorption)” value is recorded as 0.9.
Regarding `Cc1ccc(NC(=O)c2ccc(CN3CCN(C)CC3)cc2)cc1Nc1nccc(-c2cccnc2)n1` [Imatinib], the “HIA(Human Intestinal Absorption)” value is recorded as 0.98.
`C[C@@H](O)[C@H]1C(=O)N2C(C(=O)O)=C(SCCN=CN)C[C@H]12` [Imipenem]: the “HIA(Human Intestinal Absorption)” value is given as 0.05.
Regarding `CN(C)CCCN1c2ccccc2CCc2ccccc21` [Imipramine], the “HIA(Human Intestinal Absorption)” value is given as 1.
`CC(C(=O)O)c1ccc(N2Cc3ccccc3C2=O)cc1` (centres unmarked) [Indoprofen]: the “HIA(Human Intestinal Absorption)” value is 1.
With `CC(=O)N(CC(O)CO)c1c(I)c(C(=O)NCC(O)CO)c(I)c(C(=O)NCC(O)CO)c1I` (centres unmarked) [Iohexol], the “HIA(Human Intestinal Absorption)” value is on record as 0.05.
For `CCCCC1=NC2(CCCC2)C(=O)N1Cc1ccc(-c2ccccc2-c2nnn[nH]2)cc1` [Irbesartan], the “HIA(Human Intestinal Absorption)” value is given as 1.
`NNC(=O)c1ccncc1` [Isoniazid]: the “HIA(Human Intestinal Absorption)” value is 0.8.
As for `CC1=C(/C=C/C(C)=C/C=C/C(C)=C\C(=O)O)C(C)(C)CCC1` [Isotretinoin], the “HIA(Human Intestinal Absorption)” value was 0.9.
On to `O=C(O)Cc1ccc2c(c1)C(=O)c1ccccc1CO2` [Isoxepac], for which the “HIA(Human Intestinal Absorption)” value was 0.98.
`Cc1cc(NC(=O)C2=C(O)c3ccccc3S(=O)(=O)N2C)no1` [Isoxicam]: the “HIA(Human Intestinal Absorption)” value was 1.
For `CC(CCc1ccccc1)NCC(O)c1ccc(O)c(C(N)=O)c1` (centres unmarked) [Labetalol], the “HIA(Human Intestinal Absorption)” value is on record as 0.95.
Take `Nc1nnc(-c2cccc(Cl)c2Cl)c(N)n1` [Lamotrigine]: the “HIA(Human Intestinal Absorption)” value is listed as 0.98.
For the compound `Cc1c(OCC(F)(F)F)ccnc1C[S+]([O-])c1nc2ccccc2[nH]1` (centres unmarked) [Lansoprazole], the “HIA(Human Intestinal Absorption)” value is given as 0.85.
`N#Cc1ccc(C(c2ccc(C#N)cc2)n2cncn2)cc1` [Letrozole]: the “HIA(Human Intestinal Absorption)” value is recorded as 1.
As for `c1ccc([C@H]2CN3CCSC3=N2)cc1` [Levamisole], the “HIA(Human Intestinal Absorption)” value is listed as 0.95.
For the compound `CC(C)(C)NC[C@H](O)COc1cccc2c1CCCC2=O` [Levobunolol], the “HIA(Human Intestinal Absorption)” value is on record as 1.
As to `CCC[C@@H]1C[C@@H](C(=O)N[C@@H]([C@H]2O[C@H](SC)[C@H](O)[C@@H](O)[C@H]2O)[C@@H](C)O)N(C)C1` [Lincomycin], the “HIA(Human Intestinal Absorption)” value is 0.28.
Take `CCCCc1nc(Cl)c(CO)n1Cc1ccc(-c2ccccc2-c2nn[nH]n2)cc1` [Losartan]: the “HIA(Human Intestinal Absorption)” value is 0.8.
For the compound `OC[C@@H](O)[C@@H](O)[C@H](O)[C@H](O)CO` [Mannitol], the “HIA(Human Intestinal Absorption)” value is given as 0.16.
Turning to `CNCCCC12CCC(c3ccccc31)c1ccccc12` [Maprotiline], the “HIA(Human Intestinal Absorption)” value was 0.98.
On to `COC(=O)Nc1nc2ccc(C(=O)c3ccccc3)cc2[nH]1` [Mebendazole], for which the “HIA(Human Intestinal Absorption)” value is listed as 1.
As for `Cc1cccc(Nc2ccccc2C(=O)O)c1C` [Mefenamic_acid], the “HIA(Human Intestinal Absorption)” value is listed as 0.9.
Take `Cc1cnc(NC(=O)C2=C(O)c3ccccc3S(=O)(=O)N2C)s1` [Meloxicam]: the “HIA(Human Intestinal Absorption)” value is 0.9.
Consider `C#C[C@]1(O)CC[C@H]2[C@@H]3CCc4cc(OC)ccc4[C@H]3CC[C@@]21C` [Mestranol], for which the “HIA(Human Intestinal Absorption)” value is on record as 0.9.
On to `CN(C)C(=N)N=C(N)N` [Metformin], for which the “HIA(Human Intestinal Absorption)” value is 0.53.
Regarding `Cn1cc[nH]c1=S` [Methimazole], the “HIA(Human Intestinal Absorption)” value is reported as 0.95.
Turning to `C[C@](N)(Cc1ccc(O)c(O)c1)C(=O)O` [Methyldopa], the “HIA(Human Intestinal Absorption)” value is 0.41.
For the compound `CC[C@@H](CO)NC(=O)[C@@H]1C=C2c3cccc4[nH]cc(c34)C[C@H]2N(C)C1` [Methylergonovine], the “HIA(Human Intestinal Absorption)” value is listed as 1.
For the compound `C[C@H]1C[C@@H]2[C@H]([C@@H](O)C[C@@]3(C)[C@H]2CC[C@]3(O)C(=O)CO)[C@@]2(C)C=CC(=O)C=C12` [Methylprednisolone], the “HIA(Human Intestinal Absorption)” value was 0.82.
With `CC(C)(C(=O)c1cccnc1)c1cccnc1` [Metyrapone], the “HIA(Human Intestinal Absorption)” value was 0.8.
On to `CC1(C)S[C@@H]2[C@H](NC(=O)[C@H](NC(=O)N3CCN(S(C)(=O)=O)C3=O)c3ccccc3)C(=O)N2[C@H]1C(=O)O` [Mezlocillin], for which the “HIA(Human Intestinal Absorption)” value is recorded as 0.01.
Regarding `CN1CCN2c3ccccc3Cc3ccccc3C2C1` (centres unmarked) [Mianserin], the “HIA(Human Intestinal Absorption)” value is on record as 0.7.
Regarding `COCC(=O)O[C@]1(CCN(C)CCCc2nc3ccccc3[nH]2)CCc2cc(F)ccc2[C@@H]1C(C)C` [Mibefradil], the “HIA(Human Intestinal Absorption)” value is recorded as 0.69.
Regarding `Cc1[nH]c(=O)c(C#N)cc1-c1ccncc1` [Milrinone], the “HIA(Human Intestinal Absorption)” value is reported as 0.83.
